Each structure is given as a SMILES string.

The results in this text go back to ChEMBL document CHEMBL5634085, “Design, synthesis and antitrypanosomatid activity of 2-nitroimidazole-3,5-disubstituted isoxazole compounds based on benznidazole” (Eur J Med Chem, 2023).

System in the first data set: not listed separately
Briefly: Cytotoxicity against monkey LLC-MK2 cells incubated for 72 hrs by MTT assay. Conditions: rhesus monkey. The class given is toxicity, cell-based, Macaca mulatta. (In general: Tetrazolium assays rely on reduction of a dye to a coloured formazan, in cell work by metabolically active cells.)
`O=[N+]([O-])c1nccn1Cc1cc(-c2ccc3c(c2)OCO3)no1`: the CC50 at 72 h was over 50 µM.
Still for that read-out and setting: then `Cc1ccc(-c2cc(Cn3ccnc3[N+](=O)[O-])on2)cc1[N+](=O)[O-]`, with over 50 µM; and `CN1CCCN(c2ccc(-c3cc(Cn4ccnc4[N+](=O)[O-])on3)cc2)CC1`, with over 50 µM; and `CC(C)N1CCN(c2ccc(-c3cc(Cn4ccnc4[N+](=O)[O-])on3)cc2)CC1`, with over 50 µM.
Same read-out and setting: to `O=[N+]([O-])c1nccn1Cc1cc(-c2ccc(N3CCNCC3)cc2)no1` belongs over 50 µM; to `O=[N+]([O-])c1nccn1Cc1cc(-c2ccc(Cl)c(Cl)c2)no1`, over 50 µM.
The same measure, in the same setting: then `N#Cc1cccc(-c2cc(Cn3ccnc3[N+](=O)[O-])on2)c1`, with over 50 µM; and `CN(C)c1ccc(-c2cc(Cn3ccnc3[N+](=O)[O-])on2)cc1`, with over 50 µM.

System in another data set: not listed separately
Briefly: Selectivity index, ratio of CC50 for cytotoxicity against monkey LLC-MK2 cells to IC50 for antileishmanial activity against Leishmania amazonensis IFLA/BR/1967/PH8 amastigotes infected in mouse peritoneal macrophage. The class given is toxicity, cell-based. Conditions: read-out: Ratio CC50/IC50.
For `O=[N+]([O-])c1nccn1Cc1cc(-c2ccc3c(c2)OCO3)no1`, the selectivity ratio was over 6.
Same read-out and setting: then `Cc1ccc(-c2cc(Cn3ccnc3[N+](=O)[O-])on2)cc1[N+](=O)[O-]`, with over 15.3; and `CN1CCCN(c2ccc(-c3cc(Cn4ccnc4[N+](=O)[O-])on3)cc2)CC1`, with over 21.3.
Still for that read-out and setting: to `CC(C)N1CCN(c2ccc(-c3cc(Cn4ccnc4[N+](=O)[O-])on3)cc2)CC1` belongs over 10.6; to `O=[N+]([O-])c1nccn1Cc1cc(-c2ccc(N3CCNCC3)cc2)no1`, over 19.8.
Same read-out and setting: to `O=[N+]([O-])c1nccn1Cc1cc(-c2ccc(Cl)c(Cl)c2)no1` belongs over 2.6; to `N#Cc1cccc(-c2cc(Cn3ccnc3[N+](=O)[O-])on2)c1`, over 1.4; to `CN(C)c1ccc(-c2cc(Cn3ccnc3[N+](=O)[O-])on2)cc1`, over 1.5.

The test system of the next data set is Leishmania amazonensis. Put plainly: Potency index, ratio of pentamidine IC50 to test compound IC50 for antileishmanial activity against Leishmania amazonensis IFLA/BR/1967/PH8 amastigotes infected in mouse peritoneal macrophage assessed as inhibition of parasite growth pre-infected in cells for 4 hrs followed by compound addition and measured after 24 hrs by Giemsa staining based analysis. The class given is functional, Peritoneal macrophage cell.
Conditions: not given
Turning to `O=[N+]([O-])c1nccn1Cc1cc(-c2ccc3c(c2)OCO3)no1`, the “Ratio IC50” value came to 2.
`Cc1ccc(-c2cc(Cn3ccnc3[N+](=O)[O-])on2)cc1[N+](=O)[O-]`: the “Ratio IC50” value is 5.1.
Regarding `CN1CCCN(c2ccc(-c3cc(Cn4ccnc4[N+](=O)[O-])on3)cc2)CC1`, the “Ratio IC50” value was found to be 7.1.
Still for that read-out and setting: then `CC(C)N1CCN(c2ccc(-c3cc(Cn4ccnc4[N+](=O)[O-])on3)cc2)CC1`, with 3.5; and `O=[N+]([O-])c1nccn1Cc1cc(-c2ccc(N3CCNCC3)cc2)no1`, with 6.6.

A further data set deals with Trypanosoma cruzi. Briefly: Antitrypanosomal activity against Trypanosoma cruzi Tulahuen lacZ expressing beta-galactosidase amastigotes infected in monkey LLC-MK2 cells assessed as inhibition of amastigotes pre-infected in cells for 48 hrs followed by compound addition and measured after 72 hrs by CPRG reagent based absorbance analysis. The class given is functional, organism-based.
Conditions: not given
Regarding `O=[N+]([O-])c1nccn1Cc1cc(-c2ccc3c(c2)OCO3)no1`, the IC50 amounted to 3.6 µM.
On the same count and under the same terms, then `Cc1ccc(-c2cc(Cn3ccnc3[N+](=O)[O-])on2)cc1[N+](=O)[O-]`, with 33.6 µM; and `CN1CCCN(c2ccc(-c3cc(Cn4ccnc4[N+](=O)[O-])on3)cc2)CC1`, with 1.6 µM.
Still for that read-out and setting: then `CC(C)N1CCN(c2ccc(-c3cc(Cn4ccnc4[N+](=O)[O-])on3)cc2)CC1`, with 6.6 µM; and `O=[N+]([O-])c1nccn1Cc1cc(-c2ccc(N3CCNCC3)cc2)no1`, with 4.7 µM.
Same read-out and setting: then `O=[N+]([O-])c1nccn1Cc1cc(-c2ccc(Cl)c(Cl)c2)no1`, with 2.2 µM.
With `N#Cc1cccc(-c2cc(Cn3ccnc3[N+](=O)[O-])on2)c1`, the IC50 is 40.4 µM.
With `CN(C)c1ccc(-c2cc(Cn3ccnc3[N+](=O)[O-])on2)cc1`, the IC50 was 2.3 µM.

System in a further data set: not listed separately
Put plainly: Selectivity index, ratio of CC50 for monkey LLC-MK2 cells to IC50 for Trypanosoma cruzi Tulahuen lacZ expressing beta-galactosidase amastigotes infected monkey LLC-MK2 cells. The conditions noted are these: read-out: Ratio CC50/IC50. The data set is classed as toxicity.
Turning to `O=[N+]([O-])c1nccn1Cc1cc(-c2ccc3c(c2)OCO3)no1`, the selectivity ratio was over 13.8.
Consider `Cc1ccc(-c2cc(Cn3ccnc3[N+](=O)[O-])on2)cc1[N+](=O)[O-]`, for which the selectivity ratio is over 1.5.
On the same count and under the same terms, then `CN1CCCN(c2ccc(-c3cc(Cn4ccnc4[N+](=O)[O-])on3)cc2)CC1`, with over 32; and `CC(C)N1CCN(c2ccc(-c3cc(Cn4ccnc4[N+](=O)[O-])on3)cc2)CC1`, with over 7.6; and `O=[N+]([O-])c1nccn1Cc1cc(-c2ccc(N3CCNCC3)cc2)no1`, with over 10.5.
On the same count and under the same terms, then `O=[N+]([O-])c1nccn1Cc1cc(-c2ccc(Cl)c(Cl)c2)no1`, with over 22.2.
As for `N#Cc1cccc(-c2cc(Cn3ccnc3[N+](=O)[O-])on2)c1`, the selectivity ratio is over 1.2.
Same read-out and setting: to `CN(C)c1ccc(-c2cc(Cn3ccnc3[N+](=O)[O-])on2)cc1` belongs over 21.2.

For another data set, the system named is Trypanosoma cruzi. Briefly: Binding affinity to Trypanosoma cruzi type I nitro reductase at 25 uM incubated for 5 mins in the presence of NADH by microplate reader analysis.
Conditions: not given
Take `CN(C)c1ccc(-c2cc(Cn3ccnc3[N+](=O)[O-])on2)cc1`: the Kobs is 0.31 s⁻¹.

For the next data set, the system named is Trypanosoma cruzi. Put plainly: Binding affinity to Trypanosoma cruzi type I nitro reductase at 10 uM incubated for 5 mins in the presence of NADH by microplate reader analysis.
Conditions: not given
As to `CN(C)c1ccc(-c2cc(Cn3ccnc3[N+](=O)[O-])on2)cc1`, the Kobs came to 0.24 s⁻¹.

The next data set concerns Leishmania amazonensis. Put plainly: Antileishmanial activity against Leishmania amazonensis IFLA/BR/1967/PH8 amastigotes infected in mouse peritoneal macrophage assessed as inhibition of parasite growth pre-infected in cells for 4 hrs followed by compound addition and measured after 24 hrs by Giemsa staining based analysis. The conditions noted are these: IFLA/BR/1967/PH8, Peritoneal macrophage. The class given is functional, organism-based.
Regarding `O=[N+]([O-])c1nccn1Cc1cc(-c2ccc3c(c2)OCO3)no1`, the IC50 was found to be 8.3 µM.
Still for that read-out and setting: to `Cc1ccc(-c2cc(Cn3ccnc3[N+](=O)[O-])on2)cc1[N+](=O)[O-]` belongs 3.3 µM.
On the same count and under the same terms, to `CN1CCCN(c2ccc(-c3cc(Cn4ccnc4[N+](=O)[O-])on3)cc2)CC1` belongs 2.3 µM.
The same measure, in the same setting: to `CC(C)N1CCN(c2ccc(-c3cc(Cn4ccnc4[N+](=O)[O-])on3)cc2)CC1` belongs 4.7 µM.
For `O=[N+]([O-])c1nccn1Cc1cc(-c2ccc(N3CCNCC3)cc2)no1`, the IC50 was determined as 2.5 µM.
`O=[N+]([O-])c1nccn1Cc1cc(-c2ccc(Cl)c(Cl)c2)no1`: the IC50 was 18.9 µM.
In the case of `N#Cc1cccc(-c2cc(Cn3ccnc3[N+](=O)[O-])on2)c1`, the IC50 turned out to be 36.6 µM.
Still for that read-out and setting: then `CN(C)c1ccc(-c2cc(Cn3ccnc3[N+](=O)[O-])on2)cc1`, with 33.4 µM.

As a reminder, the CC50 is the concentration giving 50% cytotoxicity. A word on the IC50: it is the concentration needed to halve the response being measured.
